Patent US11504431B2, “Formulations for the suprachoroidal space of an eye and methods” (Emory University, priority 2016, dated 2022)

Legend:
[1] = tested on: SCS of rabbit eyes ex vivo; assay: Ex vivo SCS microneedle injection, flat mount of 2D circumferential spread; parameters: species or system New Zealand White rabbit; details: in HBSS with 0.2 μm red-fluorescent particles, 25-150 μL, 3 minutes post-injection, mean±SEM
Experimental: Extraocular tissues were carefully removed from the rabbit ocular globe. To simulate a physiological intraocular pressure (IOP) of 10-12 mmHg, a water column was raised to ˜14 cm and connected to the eye via a 25-gauge needle penetrated through the optic nerve. A microneedle (750 μm in length, 33-gauge; Clearside Biomedical, Alpharetta, Ga.) attached to a 250 μL glass chromatography syringe (National Scientific, Rockwood, Tenn.) was used to make injections.
Depending on the experimental condition, each injection consisted of 25 to 150 μL of 0.5% (w/v) red-fluorescent particles (0.2 μm diameter; Excitation: 580 nm; Emission: 605 nm) and 0.025% (w/v) fluorescein suspended in Hank's Balanced Salt Solution (HBSS; Gibco, Life Technologies). After each injection, the needle was held in place for 1 minute to minimize reflux. The eye was then frozen via submersion in 100% ethanol chilled over dry ice 3 minutes post-injection depending on experimental condition.
After SCS injection and freezing, eyes were prepared to assess the 2D spread of particles and fluorescein. […]
A digital SLR camera (Canon 60D, Canon, Melville, N.Y.) with a 100 mm lens (Canon) was used to acquire brightfield and fluorescence images. […] The area of green and red fluorescence that was above threshold was calculated for each eye using ImageJ (National Institutes of Health, Bethesda, Md.). […]

rabbit SCS in vivo [2] = assay: In vivo SCS injection, RetCam fluorescence fundus imaging of area coverage and co-localization; parameters: species or system New Zealand White rabbit
Source text: Also investigated was the role of formulation and time on particle distribution in the SCS. The distribution of red-fluorescent particles suspended with green fluorescently-tagged formulation excipients in HBSS after injection into the SCS of live rabbits was imaged using red and green fluorescence simultaneously. Fluorescence was imaged using RetCam imaging, which was preferred to other non-contact fundus imaging methods, since it enabled visualization of the posterior pole as well as the far periphery (i.e., the injection site). The percentage of the SCS area in the composite images that had red/green fluorescence values at least 0.1% of the starting concentration was then calculated, and this calculation was used as a proxy of true coverage; and determined the incidence of co-localization of the red and green fluorescence greater than chance. […]
At predetermined time points, the animals were imaged with a modified RetCam II system (Clarity Medical Systems, Pleasanton, Calif.). […] The built-in fluorescein attachment was used to capture green fluorescence. For the red fluorescence, green light was generated by placing a 575±50 nm bandpass filter (Edmunds Optics) in line with the fiber optic line. A red-emission filter (610±10 nm, Omega Optical, Brattleboro, Vt.) was placed over the camera to capture red fluorescence. […]

rabbit SCS in vivo [3] = assay: Clearance of fluorescein from the SCS by fundus microscopy, effect of liquid formulation; parameters: species or system New Zealand White rabbit
Experimental: After injection of a formulation into the SCS of an anesthetized rabbit, U/S B-scan was used to determine SCS thickness at multiple locations over time, from which the rate of SCS collapse was calculated, as shown at FIG. 9. In companion experiments, the approximate clearance rate of injected fluorescent material from the SCS was found by taking fluorescence fundus images in the rabbit eye in vivo over time until fluorescence was no longer visible.
Also investigated was the effect of liquid formulation viscosity on the timescale of clearance of fluorescein from the SCS. Using fundus microscopy, the time it took for there to be no visual evidence of fluorescein in the SCS was identified. […] This was likely due to the long-lived presence of viscous CMC gel in the SCS (as evidenced by the SCS remaining open for many days), which can slow diffusion of fluorescein out of the SCS.

SCS of live rabbits [4] = assay: Collection of fluorescein by different clearance routes after SCS injection; type: in vivo, New Zealand White rabbit; details: one hour post-injection
Experimental: To assess contributions of different routes of clearance, fluorescein from multiple collection sites was collected after SCS injection in vivo. The fluorescein collected from these collection sites was determined over time. The amount of fluorescein leaving through the injection site was found by subtracting site [i] from site [ii] (i.e., difference in fluorescein collected from sclera anterior to the equator without and with injection site plugged). And the amount of fluorescein leaving through blood was found by subtracting site [iv] from site [iii] (i.e., difference in fluorescein collected from sclera posterior to the equator with and without the vortex vein transected). Though the physiological data are inherently noisy, they should nevertheless enable an order of magnitude characterization of the underlying processes (which can be compared to a theoretical model of transport below). The amount of fluorescein collected over time is depicted at FIG. 17.
For this terminal experiment, the rabbit (N=4 eyes per group) was anesthetized with a subcutaneous injection of ketamine/xylazine before microneedle injection; additional injections were given every 30 minutes to maintain anesthesia. Subcutaneous injection of 60 mL saline was also given on the rump to counteract fluid loss. The amount of fluorescein exiting the eye was determined by collecting samples over time from [i] sclera anterior to the equator; [ii] anterior sclera with injection site plugged; [iii] sclera posterior to the equator; and [iv] posterior sclera with vortex vein transected.
Prior to microneedle injection, the supranasal conjunctiva was dissected off the sclera. […] In [i] anterior sclera and [iii] posterior sclera conditions, samples were collected for 1 hour by swabbing the space with a 1 cm×1 cm paper tissue (Kimwipe, Kimberley-Clark, Irving, Tex.). Care was taken to swab only anterior or posterior to the equator, depending on the condition. The tissue was then placed in 1 mL HBSS until analysis.
To determine the amount of fluorescein leaving [ii] the anterior sclera with injection site plugged, a similar experiment was performed. Immediately post-injection, the injection site was plugged by sealing the microneedle into sclera with cyanoacrylate glue (Loctite 4013, Düsseldorf, Germany). Other methods were the same as above.
Heparin (5 mL of 10,000 IU/mL; Hospira, Lake Forest, Ill.) was given intravenously prior to the start of the experiment to prevent coagulation. […] A transfer pipette was used to collect blood exiting the vortex vein for 1 hour. The volume of collected blood was recorded, and HBSS was added to reach a final volume of 2 mL per sample for analysis.
Immediately after the last time point, all animals were euthanized by injection of pentobarbital through the marginal ear vein. Eyes were enucleated to determine the amount of fluorescein remaining (i) within the tissue (including SCS), and (ii) in aqueous humor, vitreous humor, and lens. The Kimwipe paper tissue and ocular tissue samples were placed in HBSS at 4° C. for 2 days to allow fluorescein to diffuse out and equilibrate with the HBSS. The amount of fluorescein in all samples was measured using a multi-plate reader (Excitation: 494 nm, Emission: 521 nm, Synergy H4, BioTek, Winooski, Vt.). In a separate experiment involving incubation of Kimwipes in a known amount of fluorescein, we found no evidence of loss in extracting fluorescein from the Kimwipe, and no leaching of fluorescent species out of the Kimwipe.

SCS of live rabbits [5] = details: New Zealand White, rabbit, in vivo, 3 min
SCS of live rabbits [6] = assay: SCS clearance kinetics by fundus imaging
[7] = value assumed or taken from literature; cited from earlier work

Row | SMILES | ratio of area covered by fluorescein versus particles [1] | peak area coverage of the fluorescent species (of visible SCS area) (rabbit SCS in vivo [2]; 50 μL SCS injection in HBSS) | total clearance of the fluorescently-tagged formulation excipient from the SCS (rabbit SCS in vivo [2]; HBSS = fluorescein in HBSS) | total clearance of fluorescein from the SCS (rabbit SCS in vivo [3]; injected in 5% CMC solution) | total clearance of fluorescein from the SCS (rabbit SCS in vivo [3]; injected in HBSS) | fluorescein exited via perivascular drainage around the vortex vein (SCS of live rabbits [4]) | fluorescein exited via the injection site (SCS of live rabbits [4]) | fluorescein found in blood (SCS of live rabbits [4]) | fluorescein passed transsclerally to the subconjunctival space (anterior and posterior combined) (SCS of live rabbits [4]) | fluorescein still within tissue (sclera, choroid, SCS, etc.), of total injected (SCS of live rabbits [4]) | fluorescein unaccounted for (SCS of live rabbits [4]) | area of the visible SCS occupied (SCS of live rabbits [5]) | clearance time constant (τclearance) (SCS of live rabbits [6]; exponential decay fit of fundus fluorescence) | total clearance time from SCS (SCS of live rabbits [6]; fluorescence no longer visible) | diffusivity [7]
1 | O=C1OC2(c3ccc(O)cc3Oc3cc(O)ccc32)c2ccccc21 [fluorescein] | 2.05±0.24 | 66% | ≤ 2 days | 2.7 ± 0.7 days | 0.33 ± 0.05 days | 2.5±0.3% | 1.3±4% | 6.3±4% | 15±0.3% | 46±18% | About 28% | 56±6% | 4.3 ± 0.4 h | ≤ 24 h | 
2 | C=C(CC)C(=O)c1ccc(OCC(=O)O)c(Cl)c1Cl [ethacrynic acid] |  |  |  |  |  |  |  |  |  |  |  |  |  |  | 5×10^−6 cm^2/s
